System: K24384-001-R-PDC complex spheroids, viability
Assay: Anticancer human tumor K24384-001-R-PDC patient-derived pancreatic adenocarcinoma cell line growth inhibition [GQUAD]
Conditions: for IC50: curve of first compound; for viability, T/C: stronger effect = lower value
Procedure, shortened: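 Tumor cells were grown as complex spheroids with HUVEC endothelial cells and mesenchymal stem cells as stroma. G-quadruplex stabilizers were combined with targeted agents over half-log dilutions from near the clinical Cmax, or from 10 microM.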

[1] = second compound 0.0316 µM, first compound 0.0316 µM
[2] = second compound 0.0316 µM, first compound 0.1 µM
[3] = second compound 0.0316 µM, first compound 0.316 µM
[4] = second compound 0.0316 µM, first compound 1 µM
[5] = second compound 0.0316 µM, first compound 3.16 µM
[6] = second compound 0.0316 µM, first compound 10 µM
[7] = second compound 0.1 µM, first compound 0.0316 µM
[8] = second compound 0.1 µM, first compound 0.1 µM
[9] = second compound 0.1 µM, first compound 0.316 µM
[10] = second compound 0.1 µM, first compound 1 µM
[11] = second compound 0.1 µM, first compound 3.16 µM
[12] = second compound 0.1 µM, first compound 10 µM
[13] = second compound 0.316 µM, first compound 0.0316 µM
[14] = second compound 0.316 µM, first compound 0.1 µM
[15] = second compound 0.316 µM, first compound 0.316 µM
[16] = second compound 0.316 µM, first compound 1 µM
[17] = second compound 0.316 µM, first compound 3.16 µM
[18] = second compound 0.316 µM, first compound 10 µM
[19] = second compound 1 µM, first compound 0.0316 µM
[20] = second compound 1 µM, first compound 0.1 µM
[21] = second compound 1 µM, first compound 0.316 µM
[22] = second compound 1 µM, first compound 1 µM
[23] = second compound 1 µM, first compound 3.16 µM
[24] = second compound 1 µM, first compound 10 µM
[25] = second compound 3.16 µM, first compound 0.0316 µM
[26] = second compound 3.16 µM, first compound 0.1 µM
[27] = second compound 3.16 µM, first compound 0.316 µM
[28] = second compound 3.16 µM, first compound 1 µM
[29] = second compound 3.16 µM, first compound 3.16 µM
[30] = second compound 3.16 µM, first compound 10 µM
[31] = second compound 10 µM, first compound 0.0316 µM
[32] = second compound 10 µM, first compound 0.1 µM
[33] = second compound 10 µM, first compound 0.316 µM
[34] = second compound 10 µM, first compound 1 µM
[35] = second compound 10 µM, first compound 3.16 µM
[36] = second compound 10 µM, first compound 10 µM
[37] = second compound 0.0316 µM, first compound 0.000999 µM
[38] = second compound 0.0316 µM, first compound 0.00316 µM
[39] = second compound 0.0316 µM, first compound 0.00999 µM
[40] = second compound 0.0316 µM, first compound 0.0999 µM
[41] = second compound 0.1 µM, first compound 0.000999 µM
[42] = second compound 0.1 µM, first compound 0.00316 µM
[43] = second compound 0.1 µM, first compound 0.00999 µM
[44] = second compound 0.1 µM, first compound 0.0999 µM
[45] = second compound 0.316 µM, first compound 0.000999 µM
[46] = second compound 0.316 µM, first compound 0.00316 µM
[47] = second compound 0.316 µM, first compound 0.00999 µM
[48] = second compound 0.316 µM, first compound 0.0999 µM
[49] = second compound 1 µM, first compound 0.000999 µM
[50] = second compound 1 µM, first compound 0.00316 µM
[51] = second compound 1 µM, first compound 0.00999 µM
[52] = second compound 1 µM, first compound 0.0999 µM
[53] = second compound 3.16 µM, first compound 0.000999 µM
[54] = second compound 3.16 µM, first compound 0.00316 µM
[55] = second compound 3.16 µM, first compound 0.00999 µM
[56] = second compound 3.16 µM, first compound 0.0999 µM
[57] = second compound 10 µM, first compound 0.000999 µM
[58] = second compound 10 µM, first compound 0.00316 µM
[59] = second compound 10 µM, first compound 0.00999 µM
[60] = second compound 10 µM, first compound 0.0999 µM
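Note: spheroids exposed to compounds for seven days.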

Compound: C=CC(=O)N1CCN(c2nc(=O)n(-c3c(C)ccnc3C(C)C)c3nc(-c4c(O)cccc4F)c(F)cc23)C(C)C1 (stereo not drawn) + Cc1cnc(CNC(=O)c2c(=O)c3ccc(N4CCCN(C)CC4)nc3n3c2sc2ccccc23)cn1
- IC50 (second compound 0.0316 µM): > 10000 nM
- IC50 (second compound 0.1 µM): 8780 nM
- IC50 (second compound 0.316 µM): > 10000 nM
- IC50 (second compound 1 µM): < 31.6 nM
- IC50 (second compound 3.16 µM): < 31.6 nM
- IC50 (second compound 10 µM): < 31.6 nM
- viability, T/C [1]: 79.5%
- viability, T/C [2]: 78.9%
- viability, T/C [3]: 92.1%
- viability, T/C [4]: 88.5%
- viability, T/C [5]: 98.4%
- viability, T/C [6]: 83.2%
- viability, T/C [7]: 54.7%
- viability, T/C [8]: 78%
- viability, T/C [9]: 53.6%
- viability, T/C [10]: 64.6%
- viability, T/C [11]: 58.8%
- viability, T/C [12]: 48.9%
- viability, T/C [13]: 48.3%
- viability, T/C [14]: 71.5%
- viability, T/C [15]: 64.3%
- viability, T/C [16]: 65.5%
- viability, T/C [17]: 70.8%
- viability, T/C [18]: 49.3%
- viability, T/C [19]: 41%
- viability, T/C [20]: 52.3%
- viability, T/C [21]: 42.5%
- viability, T/C [22]: 66.3%
- viability, T/C [23]: 59.9%
- viability, T/C [24]: 47.7%
- viability, T/C [25]: 35.3%
- viability, T/C [26]: 48.6%
- viability, T/C [27]: 39.6%
- viability, T/C [28]: 47.5%
- viability, T/C [29]: 47.5%
- viability, T/C [30]: 37.5%
- viability, T/C [31]: 20.8%
- viability, T/C [32]: 23.7%
- viability, T/C [33]: 31.4%
- viability, T/C [34]: 42%
- viability, T/C [35]: 23.3%
- viability, T/C [36]: 22.7%

Compound: CCc1c2c(nc3ccc(O)cc13)-c1cc3c(c(=O)n1C2)COC(=O)[C@]3(O)CC + Cc1cnc(CNC(=O)c2c(=O)c3ccc(N4CCCN(C)CC4)nc3n3c2sc2ccccc23)cn1
- IC50 (second compound 0.0316 µM): 9.23 nM
- IC50 (second compound 0.1 µM): 8.3 nM
- IC50 (second compound 0.316 µM): < 0.999 nM
- IC50 (second compound 1 µM): < 0.999 nM
- IC50 (second compound 3.16 µM): < 0.999 nM
- IC50 (second compound 10 µM): < 0.999 nM
- viability, T/C [37]: 73.2%
- viability, T/C [38]: 60.8%
- viability, T/C [39]: 53.2%
- viability, T/C [1]: 29.8%
- viability, T/C [40]: 31.9%
- viability, T/C [3]: 18%
- viability, T/C [41]: 50%
- viability, T/C [42]: 64.9%
- viability, T/C [43]: 45.7%
- viability, T/C [7]: 36.7%
- viability, T/C [44]: 29.3%
- viability, T/C [9]: 16.1%
- viability, T/C [45]: 41.4%
- viability, T/C [46]: 58.4%
- viability, T/C [47]: 38.2%
- viability, T/C [13]: 34.8%
- viability, T/C [48]: 19.9%
- viability, T/C [15]: 14%
- viability, T/C [49]: 38.8%
- viability, T/C [50]: 41.4%
- viability, T/C [51]: 31.3%
- viability, T/C [19]: 23.8%
- viability, T/C [52]: 18.4%
- viability, T/C [21]: 6.84%
- viability, T/C [53]: 37.4%
- viability, T/C [54]: 43.7%
- viability, T/C [55]: 28.8%
- viability, T/C [25]: 20.1%
- viability, T/C [56]: 8.56%
- viability, T/C [27]: 0.57%
- viability, T/C [57]: 29.2%
- viability, T/C [58]: 14.6%
- viability, T/C [59]: 13.3%
- viability, T/C [31]: 0.4%
- viability, T/C [60]: 0.25%
- viability, T/C [33]: 0.2%

Compound: Cc1cccc(N(C)C(=O)C2C(O)CCN2c2nc(C)cc(C(F)(F)F)c2C#N)c1 (stereo not drawn) + Cc1cnc(CNC(=O)c2c(=O)c3ccc(N4CCCN(C)CC4)nc3n3c2sc2ccccc23)cn1
- IC50 (second compound 0.0316 µM): > 10000 nM
- IC50 (second compound 0.1 µM): > 10000 nM
- IC50 (second compound 0.316 µM): 31.6 nM
- IC50 (second compound 1 µM): < 31.6 nM
- IC50 (second compound 3.16 µM): < 31.6 nM
- IC50 (second compound 10 µM): < 31.6 nM
- viability, T/C [1]: 105%
- viability, T/C [2]: 81.5%
- viability, T/C [3]: 86.5%
- viability, T/C [4]: 74.2%
- viability, T/C [5]: 95.6%
- viability, T/C [6]: 107%
- viability, T/C [7]: 70%
- viability, T/C [8]: 73.8%
- viability, T/C [9]: 57.7%
- viability, T/C [10]: 69.6%
- viability, T/C [11]: 72.9%
- viability, T/C [12]: 71.6%
- viability, T/C [13]: 53.3%
- viability, T/C [14]: 56%
- viability, T/C [15]: 49.2%
- viability, T/C [16]: 57.4%
- viability, T/C [17]: 74.9%
- viability, T/C [18]: 55.8%
- viability, T/C [19]: 44.1%
- viability, T/C [20]: 44.4%
- viability, T/C [21]: 50.5%
- viability, T/C [22]: 44.6%
- viability, T/C [23]: 57.5%
- viability, T/C [24]: 41.7%
- viability, T/C [25]: 38.1%
- viability, T/C [26]: 42%
- viability, T/C [27]: 41.3%
- viability, T/C [28]: 49.3%
- viability, T/C [29]: 39.9%
- viability, T/C [30]: 41.5%
- viability, T/C [31]: 40.6%
- viability, T/C [32]: 37.4%
- viability, T/C [33]: 43.3%
- viability, T/C [34]: 44.4%
- viability, T/C [35]: 26.2%
- viability, T/C [36]: 36.4%

Compound: Cn1ncnc1[C@H]1c2n[nH]c(=O)c3cc(F)cc(c23)N[C@@H]1c1ccc(F)cc1 + Cc1cnc(CNC(=O)c2c(=O)c3ccc(N4CCCN(C)CC4)nc3n3c2sc2ccccc23)cn1
- IC50 (second compound 0.0316 µM): > 316 nM
- IC50 (second compound 0.1 µM): > 316 nM
- IC50 (second compound 0.316 µM): > 316 nM
- IC50 (second compound 1 µM): < 0.999 nM
- IC50 (second compound 3.16 µM): < 0.999 nM
- IC50 (second compound 10 µM): < 0.999 nM
- viability, T/C [37]: 93.1%
- viability, T/C [38]: 80.8%
- viability, T/C [39]: 92.5%
- viability, T/C [1]: 81.9%
- viability, T/C [40]: 87.2%
- viability, T/C [3]: 105%
- viability, T/C [41]: 69.1%
- viability, T/C [42]: 76%
- viability, T/C [43]: 53.6%
- viability, T/C [7]: 68.6%
- viability, T/C [44]: 72.8%
- viability, T/C [9]: 86.9%
- viability, T/C [45]: 52.5%
- viability, T/C [46]: 63.1%
- viability, T/C [47]: 50.6%
- viability, T/C [13]: 50.5%
- viability, T/C [48]: 53.5%
- viability, T/C [15]: 58.1%
- viability, T/C [49]: 44.6%
- viability, T/C [50]: 50.3%
- viability, T/C [51]: 43.6%
- viability, T/C [19]: 48.6%
- viability, T/C [52]: 62.6%
- viability, T/C [21]: 42%
- viability, T/C [53]: 43.4%
- viability, T/C [54]: 45.2%
- viability, T/C [55]: 43.5%
- viability, T/C [25]: 44.7%
- viability, T/C [56]: 47.8%
- viability, T/C [27]: 39%
- viability, T/C [57]: 42.8%
- viability, T/C [58]: 40.2%
- viability, T/C [59]: 37.7%
- viability, T/C [31]: 46.3%
- viability, T/C [60]: 26.6%
- viability, T/C [33]: 32.8%

— PubChem BioAssay AID2060483 (Molecular Pharmacology Branch, DTP, NCI, 2025)
